Experimental data from patent US9593108B2, “Compounds and methods for antiviral treatment” (PTC Therapeutics, Inc., priority 2009, dated 2017).

Tested on: HCV replicon RNA (GenBank Accession No. AJ242654)
Experiment: HCV Replicon Assay (replicon RNA reduction and/or Fluc reporter signal)
Assay type: cell-based, Hepatitis C virus
Details: Hepatitis C virus, 72 h, replicon-containing cells cultured with test compound for up to 3 days
Description: The lack of reliable and readily accessible cell-culture and small animal models permissive for HCV replication has limited the development of new anti-HCV agents. Self-replicating subgenomic HCV systems, termed HCV replicons, have been described and have been widely used to assess the efficacy of anti-HCV inhibitors (see Blight K J, et al., 2000, Efficient initiation of HCV RNA replication in cell culture. Science 290:1972-1974; Blight K J, et al., 2002, Highly permissive cell lines for subgenomic and genomic hepatitis C virus RNA replication. J Virol 76:13001-13014; Ikeda M, et al., 2002. Selectable subgenomic and genome-length dicistronic RNAs derived from an infectious molecular clone of the HCV-N strain of hepatitis C virus replicate efficiently in cultured Huh7 cells. J Virol 76:2997-3006; Lohmann V, et al., 1999, Replication of subgenomic hepatitis C virus RNAs in a hepatoma cell line. Science 285:110-113; Pietschmann T, et al., 2002, Persistent and transient replication of full-length hepatitis C virus genomes in cell culture. J Virol 76:4008-4021; and, Pietschmann T, et al., 2001, Characterization of cell lines carrying self-replicating hepatitis C virus RNAs. J Virol 75:1252-1264).
As described in U.S. Pat. No. 6,630,343, HCV inhibitors are analyzed in the bicistronic replicon by quantitating replicon RNA (GenBank Accession No. AJ242654) reduction and/or the Fluc reporter signal. Replicon-containing cells may be cultured with a test compound of the present invention for up to 3 days. Interferon (IFN) is used as a positive control. In general, the replicon IC50 values shown in Table 1 represent IC50 values determined by replicon RNA reduction.

C[C@H](NS(=O)(=O)c1ccc(-c2c(C#N)c3cc(OC(F)F)cnc3n2C2CCC2)nc1)C1CC1 [Cpd 200, 6-[3-cyano-1-cyclobutyl-5-(difluoromethoxy)-1H-pyrrolo[2,3-b]pyridin-2-yl]-N-[(1S)-1-cyclopropylethyl]pyridine-3-sulfonamide]
IC50: 500 to 2000 nM

Cc1ccc2c(n1)c(C#N)c(-c1ccc(S(=O)(=O)N[C@@H](C)C(F)(F)F)cn1)n2C1CCCC1 [Cpd 222, 6-(3-cyano-1-cyclopentyl-5-methyl-1H-pyrrolo[3,2-b]pyridin-2-yl)-N-[(2S)-1,1,1-trifluoropropan-2-yl]pyridine-3-sulfonamide]
IC50: < 500 nM

N#Cc1c(-c2ccc(S(=O)(=O)NC3CC3)cn2)n(C2CCC2)c2ncc(C(F)(F)F)cc12 [Cpd 245, 6-[3-cyano-1-cyclobutyl-5-(trifluoromethyl)-1H-pyrrolo[2,3-b]pyridin-2-yl]-N-cyclopropylpyridine-3-sulfonamide]
IC50: < 500 nM

N#Cc1c(-c2ccc(NS(=O)(=O)C3CC3)cc2)n(C2CCC2)c2ncc(C(F)(F)F)cc12 [Cpd 246, N-{4-[3-cyano-1-cyclobutyl-5-(trifluoromethyl)-1H-pyrrolo[2,3-b]pyridin-2-yl]phenyl}cyclopropanesulfonamide]
IC50: 500 to 2000 nM

CCc1cnc2c(c1)c(C#N)c(-c1ccc(S(=O)(=O)N[C@H](C)C(F)(F)F)cn1)n2C1CCCC1 [Cpd 251, 6-(3-cyano-1-cyclopentyl-5-ethyl-1H-pyrrolo[2,3-b]pyridin-2-yl)-N-[(2R)-1,1,1-trifluoropropan-2-yl]pyridine-3-sulfonamide]
IC50: < 500 nM

CCc1cnc2c(c1)c(C#N)c(-c1ccc(S(=O)(=O)N[C@@H](C)C(F)(F)F)cn1)n2C1CCCC1 [Cpd 252, 6-(3-cyano-1-cyclopentyl-5-ethyl-1H-pyrrolo[2,3-b]pyridin-2-yl)-N-[(2S)-1,1,1-trifluoropropan-2-yl]pyridine-3-sulfonamide]
IC50: < 500 nM

CC1(NS(=O)(=O)c2ccc(-c3c(C#N)c4cc(C5CC5)cnc4n3C3CCCC3)nc2)CC1 [Cpd 253, 6-(3-cyano-1-cyclopentyl-5-cyclopropyl-1H-pyrrolo[2,3-b]pyridin-2-yl)-N-(1-methylcyclopropyl)pyridine-3-sulfonamide]
IC50: 500 to 2000 nM

Cc1cnc2c(c1)c(C#N)c(-c1ccc(S(=O)(=O)N[C@@H](C)C(F)(F)F)cn1)n2C1CCCC1 [Cpd 255, 6-(3-cyano-1-cyclopentyl-5-methyl-1H-pyrrolo[2,3-b]pyridin-2-yl)-N-[(2S)-1,1,1-trifluoropropan-2-yl]pyridine-3-sulfonamide]
IC50: < 500 nM

COc1cnc2c(c1)c(C#N)c(-c1ccc(S(=O)(=O)NC3(C)CC3)cn1)n2C1CCCC1 [Cpd 269, 6-(3-cyano-1-cyclopentyl-5-methoxy-1H-pyrrolo[2,3-b]pyridin-2-yl)-N-(1-methylcyclopropyl)pyridine-3-sulfonamide]
IC50: < 500 nM

CC1(NS(=O)(=O)c2ccc(-c3c(C#N)c4cc(Cl)cnc4n3C3CCC3)nc2)CC1 [Cpd 280, 6-(5-chloro-3-cyano-1-cyclobutyl-1H-pyrrolo[2,3-b]pyridin-2-yl)-N-(1-methylcyclopropyl)pyridine-3-sulfonamide]
IC50: < 500 nM

N#Cc1c(-c2ccc(S(=O)(=O)NC3(C(F)(F)F)CC3)cc2)n(C2CCC2)c2ncc(Cl)cc12 [Cpd 281, 4-(5-chloro-3-cyano-1-cyclobutyl-1H-pyrrolo[2,3-b]pyridin-2-yl)-N-[1-(trifluoromethyl)cyclopropyl]benzenesulfonamide]
IC50: < 500 nM

CC(C)(NS(=O)(=O)c1ccc(-c2c(C#N)c3cc(Cl)cnc3n2C2CCC2)cc1)C(F)(F)F [Cpd 282, 4-(5-chloro-3-cyano-1-cyclobutyl-1H-pyrrolo[2,3-b]pyridin-2-yl)-N-(1,1,1-trifluoro-2-methylpropan-2-yl)benzenesulfonamide]
IC50: < 500 nM

CC1(NS(=O)(=O)c2ccc(-c3c(C#N)c4cc(Cl)cnc4n3C3CCC3)cc2)CC1 [Cpd 284, 4-(5-chloro-3-cyano-1-cyclobutyl-1H-pyrrolo[2,3-b]pyridin-2-yl)-N-(1-methylcyclopropyl)benzenesulfonamide]
IC50: < 500 nM

COc1cnc2c(c1)c(C#N)c(-c1ccc(S(=O)(=O)NC3(C(F)(F)F)CC3)cn1)n2C1CCC1 [Cpd 312, 6-(3-cyano-1-cyclobutyl-5-methoxy-1H-pyrrolo[2,3-b]pyridin-2-yl)-N-[1-(trifluoromethyl)cyclopropyl]pyridine-3-sulfonamide]
IC50: < 500 nM

C[C@H](NS(=O)(=O)c1ccc(-c2cc3cc(C(F)(F)F)cnc3n2-c2ccccc2)nc1)C(F)(F)F [Cpd 314, 6-[1-phenyl-5-(trifluoromethyl)-1H-pyrrolo[2,3-b]pyridin-2-yl]-N-[(2S)-1,1,1-trifluoropropan-2-yl]pyridine-3-sulfonamide]
IC50: 500 to 2000 nM

C[C@H](NS(=O)(=O)c1ccc(-c2cc3cc(C(F)(F)F)cnc3n2-c2cnccn2)nc1)C(F)(F)F [Cpd 315, 6-[1-(pyrazin-2-yl)-5-(trifluoromethyl)-1H-pyrrolo[2,3-b]pyridin-2-yl]-N-[(2S)-1,1,1-trifluoropropan-2-yl]pyridine-3-sulfonamide]
IC50: < 500 nM

C[C@H](NS(=O)(=O)c1ccc(-c2c(C#N)c3cc(F)cnc3n2-c2ccccc2)nc1)C(F)(F)F [Cpd 319, 6-(3-cyano-5-fluoro-1-phenyl-1H-pyrrolo[2,3-b]pyridin-2-yl)-N-[(2S)-1,1,1-trifluoropropan-2-yl]pyridine-3-sulfonamide]
IC50: < 500 nM

CSc1cnc2c(c1)c(C(=O)O)c(-c1ccc(S(=O)(=O)NC3(C(F)(F)F)CC3)cn1)n2C1CCCC1 [Cpd 330, 1-cyclopentyl-5-(methylsulfanyl)-2-(5-{[1-(trifluoromethyl)cyclopropyl]sulfamoyl}pyridin-2-yl)-1H-pyrrolo[2,3-b]pyridine-3-carboxylic acid]
IC50: 2000 to 5000 nM

CC(C)(NS(=O)(=O)c1ccc(-c2c(C(=O)O)c3cc(Cl)cnc3n2C2CCC2)nc1)C(F)(F)F [Cpd 331, 5-chloro-1-cyclobutyl-2-{5-[(1,1,1-trifluoro-2-methylpropan-2-yl)sulfamoyl]pyridin-2-yl}-1H-pyrrolo[2,3-b]pyridine-3-carboxylic acid]
IC50: 500 to 2000 nM

Cc1cnc2c(c1)c(C(N)=O)c(-c1ccc(S(=O)(=O)NC3(C(F)(F)F)CC3)cc1)n2C1CCC1 [Cpd 342, 1-cyclobutyl-5-methyl-2-(4-{[1-(trifluoromethyl)cyclopropyl]sulfamoyl}phenyl)-1H-pyrrolo[2,3-b]pyridine-3-carboxamide]
IC50: < 500 nM

Cc1cnc2c(c1)c(C(N)=O)c(-c1ccc(S(=O)(=O)N[C@@H](C)C(F)(F)F)cc1)n2C1CCC1 [Cpd 343, 1-cyclobutyl-5-methyl-2-(4-{[(2S)-1,1,1-trifluoropropan-2-yl]sulfamoyl}phenyl)-1H-pyrrolo[2,3-b]pyridine-3-carboxamide]
IC50: < 500 nM

C[C@H](NS(=O)(=O)c1ccc(-c2c(C#N)c3cc(N(C)Cc4ccccc4)cnc3n2C2CCC2)nc1)C(F)(F)F [Cpd 350, 6-{5-[benzyl(methyl)amino]-3-cyano-1-cyclobutyl-1H-pyrrolo[2,3-b]pyridin-2-yl}-N-[(2S)-1,1,1-trifluoropropan-2-yl]pyridine-3-sulfonamide]
IC50: < 500 nM

CN(Cc1ccccc1)c1cnc2c(c1)c(C#N)c(-c1ccc(NS(=O)(=O)C(C)(C)C)cc1)n2C1CCC1 [Cpd 352, N-(4-{5-[benzyl(methyl)amino]-3-cyano-1-cyclobutyl-1H-pyrrolo[2,3-b]pyridin-2-yl}phenyl)-2-methylpropane-2-sulfonamide]
IC50: 500 to 2000 nM

CN(Cc1ccccc1)c1cnc2c(c1)c(C#N)c(-c1ccc(S(=O)(=O)NC(C)(C)C(F)(F)F)cc1)n2C1CCC1 [Cpd 353, 4-{5-[benzyl(methyl)amino]-3-cyano-1-cyclobutyl-1H-pyrrolo[2,3-b]pyridin-2-yl}-N-(1,1,1-trifluoro-2-methylpropan-2-yl)benzenesulfonamide]
IC50: 2000 to 5000 nM

Cc1cnc(-n2c(-c3ccc(S(=O)(=O)N[C@@H](C)C(F)(F)F)cn3)c(C#N)c3cc(C(F)(F)F)cnc32)cn1 [Cpd 354, 6-[3-cyano-1-(5-methylpyrazin-2-yl)-5-(trifluoromethyl)-1H-pyrrolo[2,3-b]pyridin-2-yl]-N-[(2S)-1,1,1-trifluoropropan-2-yl]pyridine-3-sulfonamide]
IC50: < 500 nM

CC(C)(NS(=O)(=O)c1ccc(-c2c(C#N)c3cc(C(F)(F)F)cnc3n2C2CC2)cc1)C(F)(F)F [Cpd 361, 4-[3-cyano-1-cyclopropyl-5-(trifluoromethyl)-1H-pyrrolo[2,3-b]pyridin-2-yl]-N-(1,1,1-trifluoro-2-methylpropan-2-yl)benzenesulfonamide]
IC50: 2000 to 5000 nM

CC(C)(C)S(=O)(=O)Nc1ccc(-c2c(C#N)c3cc(C(F)(F)F)cnc3n2C2CC2)cc1 [Cpd 362, N-{4-[3-cyano-1-cyclopropyl-5-(trifluoromethyl)-1H-pyrrolo[2,3-b]pyridin-2-yl]phenyl}-2-methylpropane-2-sulfonamide]
IC50: 500 to 2000 nM
